Measured values: US20260325533A1, “CDK INHIBITOR COMPOUNDS” (ALEKSIA THERAPEUTICS, INC., priority 2023, published 2026)
pIC50: −log10 of the molar value. Read-outs that look alike come from different tables or passages of the source.

Key:
Assay type in all cases: biochemical
CDK1/CCNB1 = CDK1/CCNB1 (Homo sapiens, UniProt P06493); assay: CDK1 homogeneous time-resolved fluorescence (HTRF) kinase assay; conditions: 0.5 nM CDK1/CCNB1, 1 mM ATP
How it was run: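 CDK1/CCNB1 0.5 nM + cpd, 20 min 23 °C; add 1 mM ATP, 50 nM ULight-4E-BP1 peptide, 60 min 23 °C; stop 10 mM EDTA; 2 nM Eu-Ab, 60 min; HTRF 665 nm. 11-pt half-log, top 10 μM typical; IC50.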

CDK6/CCND1 = CDK6/CCND1 (Homo sapiens, UniProt Q00534); assay: CDK6 homogeneous time-resolved fluorescence (HTRF) kinase assay; conditions: 1 nM CDK6/CCND1, 1 mM ATP
How it was run: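 1 nM enzyme, 1 mM ATP, 50 nM ULight-4E-BP1 (Thr37/46) peptide, 1% DMSO; 20 min compound preincubation, 60 min reaction, 23 °C. EDTA stop, 2 nM Eu-anti-phospho-4E-BP1 antibody 60 min. TR-FRET 665 nm (or 665/615 ratio); IC50 from 11-point half-log titration, top 10 μM.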

CDK4/CCND3 = CDK4/CCND3 (Homo sapiens, UniProt P11802); assay: CDK4 homogeneous time-resolved fluorescence (HTRF) kinase assay; conditions: 1.5 nM CDK4/CCND3, 1 mM ATP
How it was run: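 Inhibition of CDK4/CCND3 (1.5 nM) was measured at high ATP (1 mM) using 50 nM ULight-labelled 4E-BP1 Thr37/46 peptide; detection used 2 nM europium anti-phospho antibody after EDTA quench. IC50 values came from 11-point half-log titrations typically starting at 10 μM.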

CDK2/CCNE1 = CDK2/CCNE1 (Homo sapiens, UniProt P24941); assay: CDK2 homogeneous time-resolved fluorescence (HTRF) kinase assay; conditions: 3 nM CDK2/CCNE1, 1 mM ATP; read-out: CDK2/CCNE IC50 <25 nM
How it was run: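 Compounds were titrated 11-point, half-log from typically 10 μM against 3 nM CDK2/cyclin E1 at 1 mM ATP, with a 20 min enzyme preincubation. Phosphorylation of 50 nM ULight-4E-BP1 peptide over 60 min at 23 °C was detected by europium anti-phospho antibody TR-FRET.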

[1] = read-out: CDK1/CCNB IC50 25-250 nM
[2] = read-out: CDK6/CCND IC50 <25 nM
[3] = read-out: CDK4/CCND IC50 25-250 nM
[4] = read-out: CDK1/CCNB IC50 >250 nM
[5] = read-out: CDK6/CCND IC50 25-250 nM

Chain of CDK4/CCND3 (P11802 whole entry): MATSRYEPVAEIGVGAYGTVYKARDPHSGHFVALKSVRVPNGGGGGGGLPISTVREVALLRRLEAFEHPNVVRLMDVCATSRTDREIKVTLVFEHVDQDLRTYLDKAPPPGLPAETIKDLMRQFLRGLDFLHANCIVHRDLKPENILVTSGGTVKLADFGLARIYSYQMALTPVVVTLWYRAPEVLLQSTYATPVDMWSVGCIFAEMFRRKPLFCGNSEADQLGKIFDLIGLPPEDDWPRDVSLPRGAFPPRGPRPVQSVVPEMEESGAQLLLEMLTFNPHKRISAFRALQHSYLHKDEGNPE
Chain of CDK4/CCND3 (P30281 whole entry partner): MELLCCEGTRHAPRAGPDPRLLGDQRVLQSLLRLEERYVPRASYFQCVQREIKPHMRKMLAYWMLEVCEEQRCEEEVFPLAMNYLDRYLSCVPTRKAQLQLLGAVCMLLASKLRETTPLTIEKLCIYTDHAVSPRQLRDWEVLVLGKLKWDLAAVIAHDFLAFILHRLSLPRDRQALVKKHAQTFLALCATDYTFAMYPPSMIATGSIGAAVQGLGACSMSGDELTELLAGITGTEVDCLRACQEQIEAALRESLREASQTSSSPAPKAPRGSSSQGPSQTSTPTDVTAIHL
Chain of CDK1/CCNB1 (P06493 whole entry): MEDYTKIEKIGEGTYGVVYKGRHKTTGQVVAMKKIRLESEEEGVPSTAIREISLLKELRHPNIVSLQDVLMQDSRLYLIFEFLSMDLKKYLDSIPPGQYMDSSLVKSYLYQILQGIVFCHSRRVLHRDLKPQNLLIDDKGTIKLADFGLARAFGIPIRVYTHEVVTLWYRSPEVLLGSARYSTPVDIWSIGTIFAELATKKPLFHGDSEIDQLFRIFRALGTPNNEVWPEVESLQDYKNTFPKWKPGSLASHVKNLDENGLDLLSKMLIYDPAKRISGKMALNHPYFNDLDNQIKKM
Chain of CDK1/CCNB1 (P14635 whole entry partner): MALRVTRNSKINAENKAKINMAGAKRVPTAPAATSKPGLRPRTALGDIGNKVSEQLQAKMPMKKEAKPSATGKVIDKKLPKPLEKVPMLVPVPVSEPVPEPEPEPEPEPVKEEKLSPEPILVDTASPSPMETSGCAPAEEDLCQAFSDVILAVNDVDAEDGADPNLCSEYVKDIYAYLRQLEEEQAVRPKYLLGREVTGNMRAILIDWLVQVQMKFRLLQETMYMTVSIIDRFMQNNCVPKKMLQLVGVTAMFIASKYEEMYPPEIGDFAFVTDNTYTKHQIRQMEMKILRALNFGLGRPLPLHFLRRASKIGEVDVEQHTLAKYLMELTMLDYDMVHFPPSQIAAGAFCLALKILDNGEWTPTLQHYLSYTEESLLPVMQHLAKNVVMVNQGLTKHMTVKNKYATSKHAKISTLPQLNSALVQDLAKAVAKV
Chain of CDK6/CCND1 (Q00534 whole entry): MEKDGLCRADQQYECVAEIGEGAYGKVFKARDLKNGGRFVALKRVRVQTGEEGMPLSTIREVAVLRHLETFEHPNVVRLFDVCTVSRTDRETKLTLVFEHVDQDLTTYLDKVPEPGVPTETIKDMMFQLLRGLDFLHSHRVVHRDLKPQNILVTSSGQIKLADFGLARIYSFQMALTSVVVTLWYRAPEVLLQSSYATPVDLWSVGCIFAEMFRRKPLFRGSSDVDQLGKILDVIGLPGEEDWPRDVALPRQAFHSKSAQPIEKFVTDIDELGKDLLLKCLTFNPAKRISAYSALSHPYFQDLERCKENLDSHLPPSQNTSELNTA
Chain of CDK6/CCND1 (P24385 whole entry partner): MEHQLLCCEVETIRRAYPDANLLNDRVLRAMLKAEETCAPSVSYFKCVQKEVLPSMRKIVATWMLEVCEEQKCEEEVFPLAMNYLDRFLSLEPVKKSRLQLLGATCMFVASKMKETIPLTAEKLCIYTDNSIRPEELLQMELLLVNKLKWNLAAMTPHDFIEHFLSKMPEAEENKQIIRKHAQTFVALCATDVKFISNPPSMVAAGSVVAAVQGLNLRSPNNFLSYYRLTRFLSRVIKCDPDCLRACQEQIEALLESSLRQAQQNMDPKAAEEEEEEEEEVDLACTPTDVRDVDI

| SMILES | pIC50 (CDK1/CCNB1; [1]) | pIC50 (CDK6/CCND1; [2]) | pIC50 (CDK4/CCND3; [3]) | pIC50 (CDK2/CCNE1) | pIC50 (CDK4/CCND3; read-out: CDK4/CCND IC50 <25 nM) | pIC50 (CDK1/CCNB1; [4]) | pIC50 (CDK6/CCND1; [5]) | pIC50 (CDK6/CCND1; read-out: CDK6/CCND IC50 >250 nM) | pIC50 (CDK4/CCND3; read-out: CDK4/CCND IC50 >250 nM) |
| --- | --- | --- | --- | --- | --- | --- | --- | --- | --- |
| CS(=O)(=O)c1ccc(Nc2ncc3ccnc(C4=CCCCC4)c3n2)cc1 [Example 956, 8-(cyclohex-1-en-1-yl)-N-(4-(methylsulfonyl)phenyl)pyrido[3,4-d]pyrimidin-2-amine] | 6.60 to 7.60 | > 7.60 | 6.60 to 7.60 | > 7.60 | – | – | – | – | – |
| CS(=O)(=O)c1ccc(Nc2ncc3ccc(C#N)c(N4CCC(C#N)CC4)c3n2)cc1 [Example 957, 8-(4-cyanopiperidin-1-yl)-2-((4-(methylsulfonyl)phenyl)amino) quinazoline-7-carbonitrile] | 6.60 to 7.60 | > 7.60 | – | > 7.60 | > 7.60 | – | – | – | – |
| CS(=O)(=O)c1ccc(Nc2ncc3ccnc(N4CCC(C#N)CC4)c3n2)cc1 [Example 958, 1-(2-((4-(methylsulfonyl)phenyl)amino)pyrido [3,4-d]pyrimidin-8-yl)piperidine-4-carbonitrile] | – | > 7.60 | 6.60 to 7.60 | > 7.60 | – | < 6.60 | – | – | – |
| Cc1c(-c2c(C#N)ccc3cnc(Nc4ccc(S(C)(=O)=O)cc4)nc23)ccc2c1cnn2CCO [Example 962, 8-(1-(2-hydroxyethyl)-4-methyl-1H-indazol-5-yl)-2-((4-(methylsulfonyl)phenyl)amino) quinazoline-7-carbonitrile] | 6.60 to 7.60 | – | 6.60 to 7.60 | > 7.60 | – | – | 6.60 to 7.60 | – | – |
| Cc1c(-c2nccc3cnc(Nc4ccc(S(C)(=O)=O)cc4)nc23)ccc2c1cnn2CCO [Example 963, 2-(4-methyl-5-(2-((4-(methylsulfonyl)phenyl)amino)pyrido [3,4-d]pyrimidin-8-yl)-1H-indazol-1-yl)ethan-1-ol] | 6.60 to 7.60 | – | 6.60 to 7.60 | > 7.60 | – | – | 6.60 to 7.60 | – | – |
| Cc1c(-c2c(C#N)ccc3cnc(Nc4ccc(S(C)(=O)=O)cc4)nc23)ccc2nn(C)cc12 [Example 964, 8-(2,4-dimethyl-2H-indazol-5-yl)-2-((4-(methylsulfonyl)phenyl)amino) quinazoline-7-carbonitrile] | 6.60 to 7.60 | – | 6.60 to 7.60 | > 7.60 | – | – | 6.60 to 7.60 | – | – |
| Cc1c(-c2nccc3cnc(Nc4ccc(S(C)(=O)=O)cc4)nc23)ccc2nn(C)cc12 [Example 965, 8-(2,4-dimethyl-2H-indazol-5-yl)-N-(4-(methylsulfonyl)phenyl)pyrido[3,4-d]pyrimidin-2-amine] | – | – | – | > 7.60 | – | < 6.60 | – | < 6.60 | < 6.60 |
